The data set concerns rodent lifetime carcinogenesis bioassay, tumor incidence TD50. Nature of the data set: carcinogenic potency in animals, long-term in vivo studies, CPDB compilation (AID 1745844).
The mark [1] stands for this setting: rat, strain Sprague-Dawley, females, in feed, site: mammary tissue, wider than the gland, lesion: malignant tumor, dosed 104 weeks, study length 104 weeks.

Where “and” joins values, the source holds several entries; their conditions need not be identical. Identical values can stand only once. Calls of active or inactive are those of the source. How the calls were made is not given here.

The results in this text go back to PubChem BioAssay AID1745844 (Carcinogenic Potency Database (CPDB), 2022).

The TD50 is the dose at which the toxic effect under study appears in half of the subjects. For `CN(N=O)C(=O)Nc1nc2ccccc2s1`, the TD50 reads like this: (rat, strain Wistar, both sexes, by gavage, site: forestomach, lesion: papilloma, dosed 51 weeks, study length 58 weeks) 3.75 mg/kg/day; (rat, strain Wistar, both sexes, by gavage, site: forestomach, lesion: several types, types named in the paper, dosed 51 weeks, study length 58 weeks) 1.13 mg/kg/day; (rat, strain Wistar, both sexes, by gavage, site: forestomach, lesion: squamous-cell carcinoma, dosed 51 weeks, study length 58 weeks) 1.48 mg/kg/day; (rat, strain Wistar, both sexes, by gavage, site: liver, lesion: several types, types named in the paper, dosed 51 weeks, study length 58 weeks) 11.3 mg/kg/day.
As for `CC1CN(/N=C/c2ccc([N+](=O)[O-])o2)C(=O)N1` (stereo not drawn), the TD50 reads like this: (rat, strain Sprague-Dawley, females, in feed, site: any site (literature study), lesion: several types, types named in the paper, dosed 46 weeks, study length 66 weeks) 5.59 mg/kg/day; (rat, strain Sprague-Dawley, females, in feed, site: mammary gland, lesion: adenocarcinoma, dosed 46 weeks, study length 66 weeks) 5.34 mg/kg/day.
Turning to `CC(=O)CN(N=O)C(=O)NCCCl`, the TD50 by setting is: (hamster, strain Syrian Golden, females, by gavage, site: spleen, lesion: all vascular tumors, dosed 43 weeks, study length 75 weeks) 0.774 mg/kg/day; (hamster, strain Syrian Golden, males, by gavage, site: spleen, lesion: hemangiosarcoma, dosed 43 weeks, study length 75 weeks) 0.216 mg/kg/day; (rat, strain Fischer 344, females, by gavage, site: liver, lesion: one or several types, types not named, dosed 30 weeks, study length 104 weeks) 1.36 mg/kg/day; (rat, strain Fischer 344, females, by gavage, site: nervous system, lesion: one or several types, types not named, dosed 30 weeks, study length 104 weeks) 4.49 mg/kg/day; (rat, strain Fischer 344, females, in drinking water, site: lung, lesion: one or several types, types not named, dosed 30 weeks, study length 104 weeks) 4.49 mg/kg/day; (rat, strain Fischer 344, females, in drinking water, site: nervous system, lesion: one or several types, types not named, dosed 30 weeks, study length 104 weeks) 4.49 mg/kg/day. For the same compound, the TD50 runs as follows: (rat, strain Fischer 344, males, by gavage, site: lung, lesion: one or several types, types not named, dosed 30 weeks, study length 104 weeks) 3.14 mg/kg/day; (rat, strain Fischer 344, males, by gavage, site: nervous system, lesion: one or several types, types not named, dosed 30 weeks, study length 104 weeks) 0.951 mg/kg/day; (rat, strain Fischer 344, males, in drinking water, site: liver, lesion: one or several types, types not named, dosed 30 weeks, study length 104 weeks) 3.14 mg/kg/day; (rat, strain Fischer 344, males, in drinking water, site: lung, lesion: one or several types, types not named, dosed 30 weeks, study length 104 weeks) 1.5 mg/kg/day; (rat, strain Fischer 344, males, in drinking water, site: nervous system, lesion: one or several types, types not named, dosed 30 weeks, study length 104 weeks) 3.14 mg/kg/day.
Consider `N[C@@H](Cc1c[nH]c2ccccc12)C(=O)O`, for which the carcinogen call was “negative (inactive)” (mouse, strain B6C3F1, females, in feed, site: any site (literature study), lesion: several types, types named in the paper, dosed 78 weeks, study length 104 weeks); “negative (inactive)” (rat, strain Fischer 344, females, in feed, site: any site (literature study), lesion: several types, types named in the paper, dosed 78 weeks, study length 104 weeks); “negative (inactive)” (rat, strain Fischer 344, males, in feed, site: any site (literature study), lesion: several types, types named in the paper, dosed 78 weeks, study length 104 weeks); “negative (inactive)” (rat, strain Fischer, males, in feed, site: urinary bladder, lesion: several types, types named in the paper, dosed 100 weeks, study length 104 weeks). Besides, the TD50 is, setting by setting: (mouse, strain B6C3F1, females, in feed, site: liver, lesion: hepatocellular adenoma + hepatocellular carcinoma + neoplastic nodule, dosed 78 weeks, study length 104 weeks) 30200 mg/kg/day; (mouse, strain B6C3F1, males, in feed, site: any site (literature study), lesion: several types, types named in the paper, dosed 78 weeks, study length 104 weeks) 1470 mg/kg/day (inactive).
As to `CC(C)C(C(=O)OC(C#N)c1cccc(Oc2ccccc2)c1)c1ccc(Cl)cc1` (stereo not drawn), the TD50 (mouse, strain B6C3F1, females, in feed, site: any site (literature study), lesion: one or several types, types not named, dosed 104 weeks, study length 104 weeks) was 173 mg/kg/day (inactive); the TD50 (mouse, strain B6C3F1, males, in feed, site: any site (literature study), lesion: one or several types, types not named, dosed 104 weeks, study length 104 weeks) was 251 mg/kg/day (inactive); the TD50 (mouse, strain C57BL/6, females, by gavage, site: all sites, lesion: lymphoma, dosed 104 weeks, study length 114 weeks) is 384 mg/kg/day (inactive); the TD50 (mouse, strain C57BL/6, females, by gavage, site: any site (literature study), lesion: one or several types, types not named, dosed 104 weeks, study length 114 weeks) is 435 mg/kg/day (inactive); the TD50 (mouse, strain C57BL/6, males, by gavage, site: all sites, lesion: lymphoma, dosed 104 weeks, study length 114 weeks) is 659 mg/kg/day (inactive); the TD50 (mouse, strain C57BL/6, males, by gavage, site: liver, lesion: liver-cell tumor, dosed 104 weeks, study length 114 weeks) was 328 mg/kg/day (inactive). Further, the TD50 was 58 mg/kg/day (inactive) (rat, strain Sprague-Dawley, females, in feed, site: mammary gland, lesion: fibroadenoma, dosed 104 weeks, study length 104 weeks); 2.55 mg/kg/day (inactive) (rat, strain Sprague-Dawley, females, in feed, site: mammary gland, lesion: fibroma, dosed 104 weeks, study length 104 weeks); 43.7 mg/kg/day (inactive) and 247 mg/kg/day (inactive) (rat, strain Sprague-Dawley, females, in feed, site: mammary tissue, wider than the gland, lesion: benign tumor, dosed 104 weeks, study length 104 weeks); 150 mg/kg/day (inactive) under setting [1]; 5.04 mg/kg/day (inactive) (rat, strain Sprague-Dawley, males, in feed, site: subcutaneous tissue, lesion: fibrosarcoma, dosed 104 weeks, study length 104 weeks); 266 mg/kg/day (inactive) (rat, strain Sprague-Dawley, males, in feed, site: subcutaneous tissue, lesion: spindle-cell sarcoma, dosed 104 weeks, study length 104 weeks). The carcinogen call (mouse, strain B6C3F1, females, in feed, site: liver, lesion: hepatocellular adenoma, dosed 104 weeks, study length 104 weeks) was “negative (inactive)”; the carcinogen call (mouse, strain B6C3F1, females, in feed, site: liver, lesion: hepatocellular carcinoma, dosed 104 weeks, study length 104 weeks) was “negative (inactive)”; the carcinogen call (mouse, strain B6C3F1, females, in feed, site: lung, lesion: bronchiolar adenoma, dosed 104 weeks, study length 104 weeks) is “negative (inactive)”; the carcinogen call (mouse, strain B6C3F1, females, in feed, site: lung, lesion: bronchogenic carcinoma, dosed 104 weeks, study length 104 weeks) was “negative (inactive)”; the carcinogen call (mouse, strain B6C3F1, males, in feed, site: liver, lesion: hepatocellular adenoma, dosed 104 weeks, study length 104 weeks) was “negative (inactive)”; the carcinogen call (mouse, strain B6C3F1, males, in feed, site: liver, lesion: hepatocellular carcinoma, dosed 104 weeks, study length 104 weeks) was “negative (inactive)”. For the same compound, the carcinogen call by setting is: (mouse, strain B6C3F1, males, in feed, site: lung, lesion: bronchiolar adenoma, dosed 104 weeks, study length 104 weeks) “negative (inactive)”; (mouse, strain B6C3F1, males, in feed, site: lung, lesion: bronchogenic carcinoma, dosed 104 weeks, study length 104 weeks) “negative (inactive)”; (mouse, strain B6C3F1, males, in feed, site: skin, lesion: fibrosarcoma, dosed 104 weeks, study length 104 weeks) “negative (inactive)”; (mouse, strain C57BL/6, females, by gavage, site: liver, lesion: liver-cell tumor, dosed 104 weeks, study length 114 weeks) “negative (inactive)”; (mouse, strain C57BL/6, females, by gavage, site: lung, lesion: adenoma, dosed 104 weeks, study length 114 weeks) “negative (inactive)”; (mouse, strain C57BL/6, males, by gavage, site: any site (literature study), lesion: one or several types, types not named, dosed 104 weeks, study length 114 weeks) “negative (inactive)”. Moreover, the carcinogen call is “negative (inactive)” (mouse, strain C57BL/6, males, by gavage, site: lung, lesion: adenoma, dosed 104 weeks, study length 114 weeks); “negative (inactive)” (rat, strain Sprague-Dawley, females, in feed, site: liver, lesion: round-cell sarcoma, dosed 104 weeks, study length 104 weeks); “negative (inactive)” under setting [1].
In the case of `ClC(Cl)=C(Cl)C(Cl)=C(Cl)Cl`, the TD50 reads like this: (rat, strain Sprague-Dawley Spartan, females, in feed, site: any site (literature study), lesion: several types, types named in the paper, dosed 104 weeks, study length 104 weeks) 9.84 mg/kg/day; (rat, strain Sprague-Dawley Spartan, females, in feed, site: kidney, lesion: several types, types named in the paper, dosed 104 weeks, study length 104 weeks) 94.4 mg/kg/day; (rat, strain Sprague-Dawley Spartan, males, in feed, site: kidney, lesion: several types, types named in the paper, dosed 95 weeks, study length 95 weeks) 50.5 mg/kg/day. In addition, the carcinogen call is, setting by setting: (rat, strain Sprague-Dawley Spartan, females, in feed, site: liver, lesion: hepatocellular tumor, malignant, dosed 104 weeks, study length 104 weeks) “negative (inactive)”; (rat, strain Sprague-Dawley Spartan, males, in feed, site: liver, lesion: hepatocellular carcinoma, dosed 95 weeks, study length 95 weeks) “negative (inactive)”.
As for `CNC(=O)ON=CC(C)(C)SC`, the carcinogen call was “negative (inactive)” (mouse, strain B6C3F1, females, in feed, site: any site (literature study), lesion: several types, types named in the paper, dosed 103 weeks, study length 103 weeks) and “negative (inactive)” (rat, strain Fischer 344, females, in feed, site: any site (literature study), lesion: several types, types named in the paper, dosed 103 weeks, study length 105 weeks). The TD50 (mouse, strain B6C3F1, females, in feed, site: liver, lesion: hepatocellular adenoma + hepatocellular carcinoma + neoplastic nodule, dosed 103 weeks, study length 103 weeks) was found to be 52.7 mg/kg/day; the TD50 (mouse, strain B6C3F1, males, in feed, site: any site (literature study), lesion: several types, types named in the paper, dosed 103 weeks, study length 103 weeks) is 1.74 mg/kg/day (inactive); the TD50 (mouse, strain B6C3F1, males, in feed, site: liver, lesion: hepatocellular adenoma + hepatocellular carcinoma + neoplastic nodule, dosed 103 weeks, study length 103 weeks) stood at 2.83 mg/kg/day; the TD50 (mouse, strain B6C3F1, males, in feed, site: lung, lesion: alveolar/bronchiolar adenoma + alveolar/bronchiolar carcinoma, dosed 103 weeks, study length 103 weeks) was 14.8 mg/kg/day; the TD50 (rat, strain Fischer 344, males, in feed, site: any site (literature study), lesion: several types, types named in the paper, dosed 103 weeks, study length 105 weeks) is 10.4 mg/kg/day (inactive); the TD50 (rat, strain Fischer 344, males, in feed, site: liver, lesion: hepatocellular adenoma + hepatocellular carcinoma + neoplastic nodule, dosed 103 weeks, study length 105 weeks) worked out at 1.33 mg/kg/day.
